Data as given in patent publication US20210275521A1, “OXABICYCLOHEPTANES FOR TREATMENT OF SECONDARY ACUTE MYELOID LEUKEMIA” (Lixte Biotechnology, Inc., priority 2017, published 2021).
pIC50: −log10 of the molar value.

How the values were obtained:
[1] = tested on: Kasumi-1; assay: MTT cytotoxicity assay, Kasumi-1; format: cell-based; settings: Homo sapiens; Kasumi-1, at 4 h after treatment
Experimental: (§1) The following five human leukemia cell lines were obtained from the Shanghai Institute of Cell Biology (Shanghai, China): Kasumi-1, HL-60, THP-1, U937 and K562. The SICM-1 leukemia cell line was acquired from the Health Science Research Resources Bank (Osaka, Japan), established from a patient with MDS that had progressed to myelomonocytic leukemia.
(§2) Cells were seeded into 96-well microtiter plates (Nunc, Roskilde, Denmark) at densities of either 1×10^5 cells/ml (established cell lines) or 5×10^5 cells/ml (primary AML cells). Cultures were exposed to different drugs for 24 h. After exposure, 20 μl of 3-(4, 5-dimethylthiazol-2-yl)-2, 5-diphenylterazolium bromide solution (MTT, Sigma-Aldrich) was added to each well. The plates were then incubated for 4 h at 37° C. The MTT-containing solution was then aspirated away, 200 μI DMSO added to each well, and absorbance at 570 nm was measured.

[2] = tested on: HL-60; assay: MTT cytotoxicity assay, HL-60; format: cell-based; settings: Homo sapiens; HL-60, at 4 h after treatment
Experimental: as §1
as §2, with “Cultures were exposed to different drugs for 24 h.” left out

[3] = tested on: THP-1; assay: MTT cytotoxicity assay, THP-1; format: cell-based; settings: Homo sapiens; THP-1, at 4 h after treatment
Experimental: as §1
as §2, with “Cultures were exposed to different drugs for 24 h.” left out

[4] = tested on: U937; assay: MTT cytotoxicity assay, U937; format: cell-based; settings: Homo sapiens, U-937; U937, at 4 h after treatment
Experimental: as §1
as §2, with “Cultures were exposed to different drugs for 24 h.” left out

[5] = tested on: K562; assay: MTT cytotoxicity assay, K562; format: cell-based; settings: Homo sapiens; K562, at 4 h after treatment
Experimental: as §1, §2

[6] = tested on: SKM-1; assay: MTT cytotoxicity assay, SKM-1 (sAML cell line); format: cell-based, human; settings: for SKM-1 cell viability: 24h incubation
Experimental: as §1
as §2, with “Cultures were exposed to different drugs for 24 h.” left out

[7] = tested on: SKM-1 cells; assay: Leukemia colony-forming assay; format: cell-based, human; settings: 7 days in methylcellulose medium
Experimental: LB100-treated SKM-1 cells were seeded in a methylcellulose medium and incubated for 7 d at 37° C. The number of leukemia colony-forming units (CFU-Ls) containing >50 cells were determined manually under a light microscope (Olympus).

[8] = molecular target: T1, PP2A (Homo sapiens, UniProt P67775); assay: PP2A phosphatase activity assay in SKM-1 cells; format: cell-based; settings: 10 μM LB100, SKM-1 cells
T1 construct: endogenous in cells; host or cells: SKM-1 cells (lysate, immunoprecipitated with Millipore kit)
T1 sequence (P67775 whole entry): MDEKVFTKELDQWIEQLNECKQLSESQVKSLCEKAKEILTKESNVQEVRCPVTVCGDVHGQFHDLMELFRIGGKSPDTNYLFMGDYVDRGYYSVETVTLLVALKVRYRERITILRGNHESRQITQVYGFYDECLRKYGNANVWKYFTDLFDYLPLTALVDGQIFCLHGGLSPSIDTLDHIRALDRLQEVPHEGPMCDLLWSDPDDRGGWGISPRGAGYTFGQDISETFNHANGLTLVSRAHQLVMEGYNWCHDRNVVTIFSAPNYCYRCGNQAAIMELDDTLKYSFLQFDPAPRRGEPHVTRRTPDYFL
T1 sequence (P30153 2-589 partner limits assumed): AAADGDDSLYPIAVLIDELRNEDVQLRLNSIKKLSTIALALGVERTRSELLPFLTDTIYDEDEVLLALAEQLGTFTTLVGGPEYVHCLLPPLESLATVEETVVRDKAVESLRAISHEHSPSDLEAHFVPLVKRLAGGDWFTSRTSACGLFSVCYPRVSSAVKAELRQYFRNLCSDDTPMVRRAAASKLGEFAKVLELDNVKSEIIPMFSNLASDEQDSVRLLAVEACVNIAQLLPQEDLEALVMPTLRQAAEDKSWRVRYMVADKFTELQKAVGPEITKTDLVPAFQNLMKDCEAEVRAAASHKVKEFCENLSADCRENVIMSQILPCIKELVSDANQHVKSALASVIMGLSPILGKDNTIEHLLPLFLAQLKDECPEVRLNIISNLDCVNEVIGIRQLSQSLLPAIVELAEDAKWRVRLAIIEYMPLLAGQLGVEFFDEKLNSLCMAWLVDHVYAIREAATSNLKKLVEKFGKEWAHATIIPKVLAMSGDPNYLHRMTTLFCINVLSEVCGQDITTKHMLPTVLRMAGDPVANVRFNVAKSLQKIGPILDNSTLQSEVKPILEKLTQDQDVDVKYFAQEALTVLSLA
Experimental: 1×IV SKM-1 cells were seeded into 6-well microtiter plates and treated with different concentrations of LB100 (0, 1.25, 2.5, 5, 10 μNI). […] Cell lysate was sonicated for 10 seconds and then centrifuged at 20,000 g for 15 minutes. Supernatant was then assayed with the PP2A Immunoprecipitation Phosphatase Assay Kit (Millipore, Mass., USA).

[9] = tested on: SKM-1 cells; assay: Western blotting of SKM-1 cells; format: cell-based, human
Experimental: Cells were washed twice in PBS and lysed in 10 mM Tris, 1 mM ethylenediaminetetra-acetic acid (EDTA), 10 mM KCl, 0.3% Triton, and 0.1 mM phenylmethanesulfonyl fluoride (PMSF). Equal amounts of protein (30-50 μg) were separated on 8-12% SDS-polyacrylamide gels, and transferred to polyvinylidene fluoride (PVDF) membranes. Membranes were blocked with 5% non-fat milk and incubated overnight with the appropriate primary antibody at manufacturer-specified dilutions. Primary monoclonal antibodies were against I3-ACTIN (Santa Cruz Biotechnology, CA, USA); CDCl25C, p-CDCl25C, CDCl2, p-CDCl2, PP2A-A, PP2A-B, PP2A-C (Epitomics, USA); AKT, p-AKT, PARP, RAS, p-MEK, p-ERK, Raf, p-CamKII, Bc.1-2 and p-Bd-2 (Cell Signaling Technology, MA, USA).
Next, the membranes were washed three times in TBS-T buffer (10 mm Tris-HCl, pH 8, 150 mm NaCl, 0.1% Tween 20), and incubated for 1 h with the corresponding horseradish peroxidase (HRP)-conjugated secondary antibody at 1:5,000 dilution. Bound secondary antibody was detected using an enhanced chemiluminescence (ECL) system (Pierce Biotechnology, IL, USA).

[10] = tested on: SKM-1 cells; assay: Cell cycle analysis by flow cytometry; format: cell-based, human; settings: 12 h exposure at 5 μM
Experimental: Cells were collected after being fixed overnight in 75% ethanol at −20° C. Fixed cells were washed twice with PBS, then incubated for 30 min with RNase A and propidium iodide (10 μg/ml). Cell cycle analysis was performed using a BDL SRII Flow Cytometer and FACSDiva Software (BD Bioscience, Franklin Lakes, USA). Raw data was analyzed using ModFit LT 3.2 software (Verity Software House, Topsham, USA).

[11] = tested on: SKM-1 cells; assay: Annexin V and propidium iodide flow-cytometry apoptosis assay; format: cell-based, human; settings: for rate of apoptosis: LB100 10 μM 24 h
Experimental: Cells were seeded into 6-well plates, and treated for 24h at 37° C. with different concentrations of LB100 (0, 1.25, 2.5, 5,10 μM). After washing with PBS, aliquots of the cells were resuspended in binding buffer, and stained with 5 μl Annexin V and 5 μl propidium iodide (Biouniquer, Nanjing, China) according to the manufacturer's instructions. Fluorescence-activated cell sorting (FACS) was then performed immediately after staining.
Cells (5×10^5 cells/well) were pre-incubated for 3 h at 37° C. in the presence or absence of 20 KM of the pan-caspase inhibitor z-VAD-fmk (R&D Systems, MN, USA) in DMSO. Cells were then treated with LB100 for 24h, and processed in the Annexin V-binding assay as described above.

[12] = tested on: SKM-1 cells; assay: Hoechst staining of nuclear morphology; format: cell-based, human; settings: 24 h, varying doses
Experimental: SKM-1 cells were treated with LB100 for 24 h. Cells were then permeabilized with 0.5% Triton X-100 for 30 min, washed with PBS, stained with 10 μg/ml Hoechst for 30 min, and washed with PBS. Nuclear morphology was observed immediately after using a BX51 fluorescence microscope (Olympus, Tokyo, Japan).

[13] = tested on: SKM-1 xenografts; assay: In vivo tumorigenicity assay, SKM-1 xenograft; design: species or system NOD/SCID mice; settings: 2 mg/kg i.p. every other day for 14d, vs control
Experimental: All animal studies were performed according to the guidelines of Animal Care and Use Committee of the First Affiliated Hospital of Zhejiang University and met the NIH guidelines for the care and use of laboratory animals. And all animal studies were approved by IACUC committee of the First Affiliated Hospital of Zhejiang University. Nonobese diabetic/severe combined immunodeficiency (NOD/SCID) mice aged 6 weeks were purchased from the Shanghai Experimental Animal Center of the Chinese Academy of Sciences (Shanghai, China). SKM-1 cells (5×106 in 100 μl PBS) were injected subcutaneously into the right flank of each mouse. By 10-14d, when the tumor volumes had reached 90-110 mm3, the mice were randomly divided into four groups: DNR LB100, DNR only, LB100 only, and control. Mice were injected intraperitoneally (i.p.) with 2 mg/kg DNR and/or 2 mg/kg LB100, every other day for a total of 14d. Control mice were injected with an equal volume of PBS. Tumor size was monitored every 3d based on caliper measurements of the two perpendicular diameters; tumor volume was calculated using the formula V=(width′×length×it/6).

[14] = tested on: miR-181b-1; assay: MicroRNA microarray analysis; format: cell-based, human; settings: SKM-1, exposure 12h
Source text: Total RNA was extracted from SKM-1 and LB100-treated-SKM-1 cells using the RNeasy mini kit (Qiagen, Calif., USA) according to the manufacturer's instructions. The miRNA microarray analysis was done by KangChen (Shanghai, China).

[15] = tested on: miR-181b-1; assay: Quantitation of miR-181b-1 by real-time quantitative RT-PCR; format: cell-based, human; settings: SKM-1, normalized to U6 RNA, vs control
Source text: Total miRNA was extracted from 1×10^6 SKM-1 cells using the RNAiso kit for small RNA (TaKaRa, Japan), and reverse-transcribed using the One Step PrimeScript miRNA cDNA Synthesis Kit (TaKaRa, Japan). The resulting cDNA was quantified using the iCycler Real-time PCR Detection System (BioRad, Calif., USA) and SYBR Green (Takara, Japan). The expression of miR-181b-1 was quantified relative to the expression of human U6 small nuclear RNA using the 2-°° c.′ method.

[16] = tested on: Bcl-2; assay: Immunohistochemistry staining of SKM-1 xenograft for Bcl-2; design: species or system NOD/SCID mice; settings: in-vivo
Experimental: Immunohistochemical staining was performed on the paraffin-embedded sections. Tissue sections were dewaxed and rehydrated before performing antigen retrieval. Anti-BCL-2 (Cell Signaling Technology, MA, USA) were applied at 1:100 dilution in PBS to incubate slides overnight at 4° C., and incubated with an HRP-conjugated secondary antibody for 1 hat room temperature. DAB was used for color development, and dark brown staining was considered positive. All slides were photographed with optical microscopy Olympus BX51.

CN1CCN(C(=O)C2C(C(=O)O)[C@H]3CC[C@@H]2O3)CC1 (stereo partly drawn) [LB100]
pIC50 [1]: 5.36 | pIC50 [2]: 5.47 | pIC50 [3]: 4.87 | pIC50 [4]: 5.46 | pIC50 [5]: 5.15 | SKM-1 cell viability [6]: significantly diminished in a dose-dependent manner | pIC50 ([6]; Homo sapiens, SKM-1, at 4 h after treatment): 5.27 | growth of SKM-1 cells, colony formation [7]: dose-dependent inhibitory activity | reduction of the activity of PP2A [8]: up to 60% | CDCl2 and CDCl25C total- and phosphorylated-protein levels ([9]; 5 μM LB100, SKM-1): markedly downregulated | phosphorylated Bcl-2 and CamKII ([9]; after LB100 administration): increased | caspase-3 and PARP cleavage ([9]; immunoblotting, 24h exposure, SKM-1): cleavage in a concentration-dependent manner | Bcl-2 expression, immunoblot ([9]; in-vitro, SKM-1, 5 μM LB100): markedly downregulated | expression of the three PP2A subunits (PP2A-A, PP2A-B, PP2A-C) ([9]; western blot, 5 μM LB100 for 12 h): moderately decreased | levels of p-AKT ([9]; western blot, sAML cells): increased | G2/M phase cells ([10]; SKM-1 (13.4% before)): 31.5% | G0/G1 phase cells ([10]; SKM-1 (36.7% before)): 9.8% | fraction of apoptotic sAML cells ([11]; 1.25 μM, 24h (3.13% in the absence of LB100)): 8.51% | fraction of apoptotic sAML cells ([11]; 2.5 μM, 24h): 13.61% | fraction of apoptotic sAML cells ([11]; 5 μM, 24h): 37% | fraction of apoptotic sAML cells ([11]; 10 μM, 24h): 65.27% | rate of apoptosis ([11]; absence of z-VAD-FMK): 62% | rate of apoptosis ([11]; presence of pan-caspase inhibitor z-VAD-FMK): 16% | nuclear morphology after Hoechst staining [12]: increased amounts of condensed, pyknotic nudei | tumor volume [13]: sharp decrease | miR-181b-1 in microRNA profiling [14]: significantly up-regulated | relative expression of miR-181b-1, increase [15]: about 2 fold | Bcl-2 expression, immunohistochemistry [16]: markedly downregulated

COc1cccc2c1C(=O)c1c(O)c3c(c(O)c1C2=O)C[C@@](O)(C(C)=O)C[C@@H]3O[C@H]1C[C@H](N)[C@H](O)[C@H](C)O1 [DNR, Daunorubicin, reference compound]
SKM-1 cell viability [6]: significantly diminished in a dose-dependent manner | tumor volume [13]: sharp decrease
